Measured values taken from US12325710B2, “Substituted 1,2,3,4,5,6-hexahydroazepino[4,5-b]indoles for treating brain disorders” (priority 2019, dated 2025).
Entries after “also recorded” stand apart in the source; their conditions may differ.

Experiments:
5HT2A sensor = 5HT2A sensor assay (sLight1.3s HEK293T cells), agonist and antagonist mode; assay type: cell-based; conditions: for activation of 5HT2A sensor, agonist mode / competition with 5HT binding at 5HT2A sensor, antagonist mode: 10 μM of compound; for activation of 5HT2A sensor, agonist mode: FIG. 16; for competition with 5HT binding at 5HT2A sensor, antagonist mode: FIG. 18; for activation of 5HT2A sensor, agonist mode, dose response: FIG. 15
Protocol: 5HT2A Sensor Assays. HEK293T (ATCC) 5HT2A sensor stable line (sLight1.3s) was generated via lentiviral transduction of HIV-EF1α-sLight1.3 and propagated from a single colony. Lentivirus was produced using 2nd generation lentiviral plasmids pHIV-EF1α-sLight1.3, pHCMV-G, and pCMV-deltaR8.2.
For the screening of the 41 compounds, sLight1.3s cells were plated in 96-well plates at a density of 40000 24-hours prior to imaging. On the day of imaging, compounds solubilized in DMSO were diluted from the 100 mM stock solution to working concentrations of 1 mM, 100 μM and 1 μM with a DMSO concentration of 1%. Immediately prior to imaging, cells growing in DMEM (Gibco) were washed 2× with HBSS (Gibco) and in agonist mode 180 μL of HBSS or in antagonist mode 160 μL of HBSS was added to each well after the final wash. For agonist mode, images were taken before and after the addition of the 20 μL compound working solution into the wells containing 180 μL HBSS. This produced final compound concentrations of 100 μM, 10 μM and 100 nM with a DMSO concentration of 0.1%. For antagonist mode, images were taken before and after addition of 20 μL of 900 nM 5-HT and again after 20 μL of the compound working solutions to produce final concentrations of 100 nM for 5HT and 100 μM, 10 μM and 100 nM for the compounds with a DMSO concentration of 0.1%. Each compound was tested in triplicates (3 wells) for each concentration (100 μM, 10 μM and 100 nM). Additionally, within each plate, 100 nM 5HT and 0.1% DMSO controls were also imaged.
For each well, the cellular membrane where the 5HT2A sensor is targeted was autofocused using the adaptive focus controls and 5 images from different regions within the well were taken with each image processed from a 2×2 binning.
For data processing, the membranes from each image was segmented and analyzed using a custom algorithm written in MATLAB producing a single raw fluorescence intensity value. For each well the 5 raw fluorescence intensity values generated from the 5 images were averaged and the change in fluorescence intensity (dFF) was calculated as: dFF=(Fsat−Fapo)/Fapo
For both agonist and antagonist modes, the fluorescence intensity values before compound addition in HBSS only were used as the Fapo values while the fluorescence intensity values after compound addition were used as the Fsat values.
For agonist mode, data are as percent activation relative to 5HT, where 0 is the average of the DMSO wells and 100 is the average of the 100 μM 5HT wells.

C57BL/6J mice = assay: Head-twitch response (HTR) assay; conditions: intraperitoneal; fumarate salts; 5-MeO-DMT 10 mg/kg as positive control
5-HT2B receptors = 5-HT2B receptors (Homo sapiens, UniProt P41595); assay: 5-HT2B Gq-mediated calcium flux functional assay; assay type: cell-based
Sequence of 5-HT2B receptors (P41595 whole entry, canonical isoform): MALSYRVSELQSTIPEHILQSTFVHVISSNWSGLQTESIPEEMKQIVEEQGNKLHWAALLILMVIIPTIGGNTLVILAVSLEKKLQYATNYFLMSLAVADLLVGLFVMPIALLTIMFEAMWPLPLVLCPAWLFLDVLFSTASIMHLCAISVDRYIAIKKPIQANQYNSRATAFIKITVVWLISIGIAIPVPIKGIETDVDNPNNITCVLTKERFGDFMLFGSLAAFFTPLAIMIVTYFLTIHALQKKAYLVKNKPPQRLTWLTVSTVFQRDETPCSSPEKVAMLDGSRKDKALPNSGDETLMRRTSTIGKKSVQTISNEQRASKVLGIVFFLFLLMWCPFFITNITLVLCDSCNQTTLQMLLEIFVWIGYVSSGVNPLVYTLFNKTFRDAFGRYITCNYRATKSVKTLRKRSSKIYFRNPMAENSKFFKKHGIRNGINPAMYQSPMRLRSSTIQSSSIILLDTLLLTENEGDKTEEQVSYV
Protocol: Serotonin and Opioid Receptor Functional Assays. Functional assay screens at 5-HT and opioid receptors were performed in parallel using the same compound dilutions and 384-well format high-throughput assay platforms. Assays assessed activity at all human isoforms of the receptors, except where noted for the mouse 5-HT2A receptor. Receptor constructs in pcDNA vectors were generated from the Presto-Tango GPCR library with minor modifications. All compounds were serially diluted in drug buffer (HBSS, 20 mM HEPES, pH 7.4 supplemented with 0.1% bovine serum albumin and 0.01% ascorbic acid) and dispensed into 384-well assay plates using a FLIPR^TETRA (Molecular Devices). Every plate included a positive control such as 5-HT (for all 5-HT receptors), DADLE (DOR), salvinorin A (KOR), and DAMGO (MOR). For measurements of 5-HT2A, 5-HT2B, and 5-HT2C Gq-mediated calcium flux function, HEK Flp-In 293 T-Rex stable cell lines (Invitrogen) were loaded with Fluo-4 dye for one hour, stimulated with compounds and read for baseline (0-10 seconds) and peak fold-over-basal fluorescence (5 minutes) at 25° C. on the FLIPR^TETRA. For measurement of 5-HT6 and 5-HT7a functional assays, Gs-mediated cAMP accumulation was detected using the split-luciferase GloSensor assay in HEKT cells measuring luminescence on a Microbeta Trilux (Perkin Elmer) with a 15 min drug incubation at 25° C. For 5-HT1A, 5-HT1B, 5-HT1F, MOR, KOR, and DOR functional assays, Gi/o-mediated cAMP inhibition was measured using the split-luciferase GloSensor assay in HEKT cells, conducted similarly as above, but in combination with either 0.3 μM isoproterenol (5-HT1A, 5-HT1B, 5-HT1F) or 1 μM forskolin (MOR, KOR, and DOR) to stimulate endogenous cAMP accumulation. For measurement of 5-HT1D, 5-HT1E, 5-HT4, and 5-HT5A functional assays, β-arrestin2 recruitment was measured by the Tango assay utilizing HTLA cells expressing TEV fused-β-arrestin2, as described previously with minor modifications. […]

[1] = system: rat embryonic cortical neurons; assay: Dendritogenesis (Sholl analysis) in cultured cortical neurons; assay type: cell-based; conditions: 1 h treatment followed by 71 h growth; compared to vehicle (VEH)
Protocol: Embryonic rat cortical neurons were treated for a short period of time (1 h) followed by a suitable growth period (71 h) to measure the psychoplastogenic effects of the compounds described herein. […] Therefore, the effects of ibogalogs 8-17 on dendritic growth was assessed.
Dendritogenesis Experiments. For the dendritogenesis experiments conducted using cultured cortical neurons, timed pregnant Sprague Dawley rats were obtained from Charles River Laboratories (Wilmington, MA). Full culturing, staining, and analysis details were performed as previously described. (Dunlap, L. et al., 2019)

[2] = system: mouse primary sensory cortex; assay: In vivo spine dynamics, transcranial 2-photon imaging; conditions: 24 h after i.p. dose; TBG 50 mg/kg, DOI 10 mg/kg
Protocol: In Vivo Spine Dynamics. Male and female Thy1-GFP-M line mice (n=5 per condition) were purchased from The Jackson Laboratory (JAX #007788) and maintained in UCSC animal facilities according to an IACUC approved protocol. In vivo transcranial two-photon imaging and data analysis were performed as previously described. Briefly, mice were anesthetized with an intraperitoneal (i.p.) injection of a mixture of ketamine (87 mg/kg) and xylazine (8.7 mg/kg). A small region of the exposed skull was manually thinned down to 20-30 μm for optical access. Spines on apical dendrites in mouse primary sensory cortices were imaged using a Bruker Ultima IV two-photon microscope equipped with an Olympus water-immersion objective (40×, NA=0.8) and a Ti:Sapphire laser (Spectra-Physics Mai-Tai, excitation wavelength 920 nm). Images were taken at a zoom of 4.0 (pixel size 0.143×0.143 μm) and Z-step size of 0.7 μm. The mice received an i.p. injection (injection volume=5 mL/kg) of DOI (10 mg/kg) or TBG (50 mg/kg) immediately after they recovered from anesthesia given prior to the first imaging session. The animals were re-imaged 24 h after drug administration. Dendritic spine dynamics were analyzed using ImageJ. Spine formation and elimination were quantified as percentages of spine number on day 0.

[3] = system: larval zebrafish expressing GCaMP5; assay: Seizurogenic potential in larval zebrafish expressing GCaMP5; assay type: in vivo; conditions: 200 μM; PTZ positive control
Protocol: Transgenic larval zebrafish expressing GCaMP5G were immobilized in agarose, treated with compounds, and imaged over time. The known seizure-inducing compound PTZ was used as a positive control. All compounds were treated at 200 μM (n=2 per condition).

larval zebrafish = assay: Larval zebrafish movement activity during a battery of light and acoustic stimuli; conditions: for behavioral phenotype at highest concentration versus lethal control: 200 μM; for behavioral phenotype with increasing concentration versus vehicle and lethal control (eugenol, 100 μM): 1 h treatment, concentration-response
Excerpt: Stimuli applied over time are indicated under the heatmaps. Colors indicate bright LED light of respective colors, black traces represent the waveforms of acoustic stimuli, and gray vertical lines indicate physical tapping as secondary acoustic stimuli.
Response is […] proportional to classification accuracy; 0-20% indicates no ability and 100% indicates perfect classification. […] The solid line denotes the median and the shading denotes a 95th percentile confidence interval calculated by bootstrap. N=8 wells/condition (64 animals/condition).

zebrafish = assay: Zebrafish developmental toxicity assay; assay type: in vivo; conditions: 100 μM; 2 and 5 dpf

CCN(CC)C(=O)[C@@H]1C=C2c3cccc4[nH]c(Br)c(c34)C[C@H]2N(C)C1 [BOL148]
activation of 5HT2A sensor, agonist mode (5HT2A sensor): do not activate the 5HT2A sensor assay in agonist mode | competition with 5HT binding at 5HT2A sensor, antagonist mode (5HT2A sensor; antagonist mode): compete with 5HT binding to 5HT2A

COc1ccc2[nH]cc(CCN(C)C)c2c1 [Compound 5-MeO-DMT, 5-methoxy-N,N-dimethyltryptamine, reference compound]
hallucinogenic potential (head-twitch response) (C57BL/6J mice): robust HTR | activity mode at 5-HT2B receptors (5-HT2B receptors): agonists of 5-HT2B receptors | activation of 5HT2A sensor, agonist mode (5HT2A sensor): activate the 5HT2A sensor assay in agonist mode | activation of 5HT2A sensor, agonist mode, dose response (5HT2A sensor): activate a 5HT2A sensor assay in agonist mode

CCN(CC)CCc1c[nH]c2cc(F)ccc12 [Compound 6-F-DET]
activation of 5HT2A sensor, agonist mode (5HT2A sensor): do not activate the 5HT2A sensor assay in agonist mode | competition with 5HT binding at 5HT2A sensor, antagonist mode (5HT2A sensor; antagonist mode): compete with 5HT binding to 5HT2A

COc1ccc2c(CCN(C)C)c[nH]c2c1 [Compound 6-MeO-DMT]
activation of 5HT2A sensor, agonist mode (5HT2A sensor): do not activate the 5HT2A sensor assay in agonist mode | activation of 5HT2A sensor, agonist mode, dose response (5HT2A sensor): do not | competition with 5-HT at 5HT2A sensor, antagonist mode, dose response (5HT2A sensor; antagonist mode, FIG. 17): compete off 5-HT

CCC1CC2CCC1N(CCc1c[nH]c3ccc(O)cc13)C2 (stereo not drawn) [Compound 11b]
psychoplastogenic effect on dendritic growth (Sholl analysis) [1]: weak psychoplastogens or did not promote neuronal growth

CN(C)CCc1c[nH]c2ccccc12 [DMT]
activation of 5HT2A sensor, agonist mode (5HT2A sensor): activate the 5HT2A sensor assay in agonist mode

COc1cc(CC(C)N)c(OC)cc1I (stereo not drawn) [DOI, 2,5-dimethoxy-4-iodoamphetamine, reference compound]
spine elimination [2]: no effect on spine elimination; also recorded: Neither TBG nor DOI affected spine elimination | spine formation [2]: increased spine formation | activation of 5HT2A sensor, agonist mode (5HT2A sensor): activate the 5HT2A sensor assay in agonist mode

O=C(c1ccc(F)cc1)C1CCN(CCn2c(=O)[nH]c3ccccc3c2=O)CC1 [Ketanserin, ketanserin]
activation of 5HT2A sensor, agonist mode (5HT2A sensor): do not activate the 5HT2A sensor assay in agonist mode | competition with 5HT binding at 5HT2A sensor, antagonist mode (5HT2A sensor; antagonist mode): compete with 5HT binding to 5HT2A

CCN(CC)C(=O)[C@@H]1C=C2c3cccc4[nH]cc(c34)C[C@H]2N(C)C1 [LSD, lysergic acid diethylamide]
activation of 5HT2A sensor, agonist mode (5HT2A sensor): activate the 5HT2A sensor assay in agonist mode | activation of 5HT2A sensor, agonist mode, dose response (5HT2A sensor): activate a 5HT2A sensor assay in agonist mode

C1CCc2nnnn2CC1 [PTZ, pentylenetetrazole, reference compound]
seizure induction (neural activity) [3]: excessive neural activity

CNC(C)Cc1ccc2c(c1)OCO2 (stereo not drawn) [R-MDMA]
activation of 5HT2A sensor, agonist mode (5HT2A sensor): do not activate the 5HT2A sensor assay in agonist mode

O=S1OCC2C(CO1)C1(Cl)C(Cl)=C(Cl)C2(Cl)C1(Cl)Cl (stereo not drawn) [endosulfan, reference compound]
behavioral phenotype at highest concentration versus lethal control (larval zebrafish): phenotypically consistent with the lethal control

O=C(CCCN1CCC(O)(c2ccc(Cl)cc2)CC1)c1ccc(F)cc1 [haloperidol, reference compound]
behavioral phenotype with increasing concentration versus vehicle and lethal control (eugenol, 100 μM) (larval zebrafish): more phenotypically distinct from the vehicle control, while more closely resembling the lethal control

CC[C@H]1C[C@H]2C[C@H]3c4[nH]c5ccc(O)cc5c4CCN(C2)[C@@H]13 [noribogaine, reference compound]
malformations, mortality, non-viable fish (zebrafish): greater survival, but the majority of the animals exhibited yolk sac and/or pericardial edemas | behavioral phenotype at highest concentration versus lethal control (larval zebrafish): phenotypically consistent with the lethal control | behavioral phenotype with increasing concentration versus vehicle and lethal control (eugenol, 100 μM) (larval zebrafish): more phenotypically distinct from the vehicle control, while more closely resembling the lethal control

O=C1NCCN1CCN1CCC(c2cn(-c3ccc(F)cc3)c3ccc(Cl)cc23)CC1 [sertindole, reference compound]
behavioral phenotype with increasing concentration versus vehicle and lethal control (eugenol, 100 μM) (larval zebrafish): more phenotypically distinct from the vehicle control, while more closely resembling the lethal control

CC(C)(C)c1ccc(C(O)CCCN2CCC(C(O)(c3ccccc3)c3ccccc3)CC2)cc1 (stereo not drawn) [terfenadine, reference compound]
behavioral phenotype with increasing concentration versus vehicle and lethal control (eugenol, 100 μM) (larval zebrafish): more phenotypically distinct from the vehicle control, while more closely resembling the lethal control

ibogaine [reference compound]
psychoplastogenic effect on dendritic growth (Sholl analysis) [1]: demonstrates psychoplastogenic effects
